System: isoliert-perfundierte Mauslungen
Assay: Hypoxic pulmonary vasoconstriction in the isolated perfused mouse lung (IPL)
Parameters: species or system C57BU6J Mäuse
Details: control ΔPAP ca. 4 cmH2O, P<0,005
Description: Hypoxisch pulmonale Vasokonstriktion an der isoliert-perfundierten Mauslunqe (IPL)
Für die IPL wurden 10-12 Wochen alte C57BU6J Mäuse verwendet. Zu Beginn wurden die Mäuse anästhesiert (Ketamin 100mg/kg Körpergewicht (KG); Xylazin 20mg/kg KG) und mittels zervikaler Dislokation getötet. Im Anschluss wurde eine Tracheotomie durchgeführt und die Lunge in situ positiv mit normoxischem (20% O2; 5% CO2; 75% N2) Gas ventiliert (Tidalvolumen: 100 µl; Atemzüge pro Minute: Körpergewicht x 10). Anschließend wurde der Bauchraum eröffnet, das Diaphragma durchtrennt und Heparin (100 U) in den rechten Ventrikel injiziert. Nach der Eröffnung des Thorax mittels Sternotomie wurde sowohl die Pulmonalarterie als auch der linke Ventrikel kanüliert und die Lunge mit auf 37°C temperierter, gepufferter Salzlösung nach Hanks, angereichert mit Ca^2+, Mg^2+ und 10% FBS, perfundiert. Je nach Versuchsgruppe wurde das Perfusat zusätzlich mit einer Gewichts-entsprechenden Menge an Metamizol, 4-Aminoantipyrin oder 4-Methylamioantipyrin versetzt. Sobald sich der pulmonalarterielle Druck (PAP) stabilisiert hatte, wurden die Basalwerte aufgezeichnet und anschließend die Mauslunge mit hypoxischem Gas (1% O2; 5% CO2; 94% N2) ventiliert. Veränderungen des PAP wurden mithilfe eines Drucksensors P75 (Havartus apparatus) detektiert, und geben das Ausmaß der hypoxischen Vasokonstriktion der Lunge wieder.

SMILES: CNc1c(C)n(C)n(-c2ccccc2)c1=O [4-Methylaminoantipyrin]
- Reduktion des ΔPAP in Abhängigkeit der Konzentration (50-200 mg/kg KG in perfusate, hypoxic gas (1% O2; 5% CO2; 94% N2), Fig. 2): Dosis-abhängigen Reduktion des ΔPAP
- inhibition at 200 mg/kg (Mus musculus, 200 mg/kg KG in perfusate, ventilation switched from normoxic to hypoxic gas (1% O2; 5% CO2; 94% N2), Fig. 1, read-out: Reduktion des ΔPAP nach Umschalten auf Hypoxie): 70%

— patent EP4167996B1, “METAMIZOLE DERIVATIVES FOR THE PREVENTION AND TREATMENT OF PULMONARY HYPERTENSION” (Preißner, Robert, priority 2020, dated 2021)
